Results: patent US8940491B2, “Genotoxicity as a biomarker for inflammation” (The Regents of the University of California, priority 2009, dated 2015)
“Also recorded” adds a separate entry of the source.

How the values were obtained:
[1] = system: normochromatic erythrocytes; test: Micronucleus assay after cytokine injection; format: in vivo, mouse; conditions: 48 hours post-injection compared to before injection
Description: In vivo micronucleus assay. Micronucleus formation was determined in normochromatic erythrocytes as micronucleated normochromatic erythrocytes per 1000 normochromatic erythrocytes as described previously (1, 8).
Injection of cytokines. […] Control animals received vehicle only.

[2] = system: peripheral leukocytes; conditions: mouse, in vivo
Description: Alkaline comet assay. To detect DNA strand breaks, as well as alkali labile sites in DNA, the alkaline comet assay was performed as described elsewhere (4). Frozen blood or single cell suspensions were thawed on ice and further diluted 1:15 in PBS before further sample preparation. After lysis and electrophoresis, gels were stained with SYBR Gold (Molecular Probes) and visualized under a fluorescent microscope (Olympus Ax70, Tokyo, Japan) at 10× magnification. Comet images were captured and analyzed with the CASP image analysis program (http://casp.sourceforge.net). The olive tail moment, which represents both tail length and fraction of DNA in the tail, was used for data collection and analysis, in which apoptotic cells were excluded under previously proposed criteria (4).
Injection of cytokines. Mouse TNF-α (Sigma) and/or mouse IL-1β (Sigma) were injected via the tail vein at 500 ng/mouse and 100 ng/mouse, respectively, dissolved in saline. Control animals received vehicle only. Peripheral blood was collected at 1 hr, 2 hrs, 4 hrs, and 24 hrs after injection for genotoxicity assays.

[3] = system: peripheral leukocytes; test: Alkaline comet assay with and without hOgg1 incubation, DSS colitis; format: in vivo, mouse
Excerpt: Blood collection. […] Identical blood samples were used for genotoxic endpoints as well as for cytokine expression.
Alkaline comet assay. […] Frozen blood was further diluted 1:15 in PBS before further preparation.
Determination of oxidative DNA damage. The enzyme hOgg1-modified comet assay was used for determination of oxidative DNA damage (25). […] (New England Biolabs, Ipswich, Mass.).

[4] = literature references; cited from earlier work
[5] = system: mice; test: Disease activity index in DSS-induced experimental colitis; format: in vivo
Description: Induction of chemical colitis. […] Acute colitis was defined as a 7 day treatment, and chronic colitis as any further treatment including remission periods. Control animals received sterile acidified water only. Symptoms (weight loss, stool consistency, gross bleeding) were recorded daily for calculation of disease activity index (23).
Evaluation of Experimental Colitis. The disease activity index (DAI) is the average combined score of weight loss (0-4), stool consistency (0-4), and bleeding (0-4), used to score clinical symptoms (23).

[6] = system: peripheral blood T-cells; test: Flow cytometry of activated T-cells (CD69, CD44) in peripheral blood, DSS colitis; format: in vivo, mouse; conditions: in response to DSS treatment
Excerpt: Flow Cytometry. T cell populations were characterized for activation status (CD69 and CD44) and CD4 or CD8α expression using flow cytometry. Erythrocytes were immediately lysed with BD PharmLyse Lysis Buffer (BD Biosciences, San Diego, Calif.). After washing with Stain Buffer with 0.2% BSA (BD), cells were stained with FITC conjugated Hamster Anti-Mouse CD69, FITC conjugated Rat Anti-Mouse/Human CD44, R-PE conjugated Rat Anti-Mouse CD4, PerCP Rat Anti-Mouse CD8α, or appropriate negative isotype controls (BD Biosciences) for 30 min at 4° C. Cells were then washed and analyzed using BD FACScan. Fluorescence intensity was normalized to each respective isotype control antibody and data were analyzed with CellQuest® (BD Biosciences). Dead cells were excluded by gating on forward/side scatter. Marker expression was recorded either as percent positive of the absolute count of total T cells, or by median fluorescence intensity if the control and marker populations overlapped.

[7] = system: peripheral leukocytes; test: 8-oxoguanine and nitrotyrosine immunofluorescence, DSS colitis; format: in vivo, mouse; conditions: DSS 7 days, 3% w/v; p<0.01
Excerpt: (§1) Immunofluorescence. […] Samples were then processed on coverslips essentially as described elsewhere (26).
8-oxoguanine is an oxidative DNA lesion formed by reaction of hydroxyl radicals, metal hyrdroperoxides, or peroxynitrite with DNA, causing G:C to T:A transversions during replication (33). Nitrotyrosine is a biochemical marker for NO-induced peroxynitrite formation involving reactions with reactive oxygen and nitrogen species resulting in nitrative damage to proteins (34).

[8] = system: erythroblasts; test: In vivo micronucleus assay in Atm−/−, Atm+/− and wildtype mice with DSS colitis; parameters: species or system mouse; conditions: all genotypes, more severe in Atm−/−
Description: In vivo micronucleus assay. […] At least 4000 mature erythrocytes were counted per animal, and the frequency of MN formation was calculated as the number of micronucleated erythrocytes per 1000 normochromatic erythrocytes.

[9] = system: peripheral leukocytes; test: γ-H2AX immunofluorescence, DSS colitis; format: in vivo, mouse
Excerpt: as §1

TNF-α
Micronuclei formation in circulating normochromatic erythrocytes [1]: minimally yet significantly elevated
Sufficiency to induce genotoxicity to peripheral leukocytes [2]: sufficient to induce genotoxicity
Time post-injection within which DNA damage was repaired [2]: ≤ 24 h

dextran sulfate sodium [DSS]
Mean olive tail moment (DNA single and double strand breaks, alkali-labile sites) ([3]; DSS treated vs non-treated mice, end of each cycle, p<0.01): significantly higher olive tail moments at the end of each cycle
Mean olive tail moment with hOgg1 incubation (oxidative base damage) ([3]; after treatment cycles, treated vs hOgg1 incubated non-treated mice, p<0.05): higher when incubated with hOgg1 after treatment cycles
Mutagenicity / direct genotoxicity of DSS itself [4]: not directly genotoxic; also recorded: not a mutagen nor genotoxic
Mortality ([5]; after three cycles of DSS treatment, wildtype mice): no mortalities were observed
Start of rectal bleeding ([5]; cycle 1 of 3% DSS treatment): 4 days
Proportion of activated (CD69+, CD44+) T-cells, Atm−/− vs wildtype mice [6]: significantly larger proportion of these T-cells are activated
8-oxoguanine and nitrotyrosine positive peripheral leukocytes [7]: significant increase in both 8-oxoguanine and nitrotyrosine
Micronucleus formation in erythroblasts (toxicity of inflammation) [8]: evident as early as after the acute 7 day treatment
Percentage of cells positive for γ-H2AX nuclear foci ([9]; after the first 7 day acute DSS treatment vs non-treated, p<0.01): increased dramatically
Percentage of cells positive for γ-H2AX nuclear foci ([9]; later cycles until end of treatment vs non-treated, p<0.05): remained elevated over non-treated animals until end of treatment

B1: IL-1β: mouse IL-1β (Sigma) injected via the tail vein at 100 ng/mouse (protein, UniProt P10749 118-269, looked up)
Interleukin-1 beta: VPIRQLHYRLRDEQQKSLVLSDPYELKALHLNGQNINQQVIFSMSFVQGEPSNDKIPVALGLKGKNLYLSCVMKDGTPTLQLESVDPKQYPKKKMEKRFVFNKIEVKSKVEFESAEFPNWYISTSQAEHKPVFLGNNSGQDIIDFTMESVSS
Time post-injection within which DNA damage was repaired [2]: ≤ 24 h
